From PubChem BioAssay (NCI)
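These data come from cells grown in 96-well plates and exposed to compound for 48 hours at five concentrations. The concentration for 50% growth inhibition is given as GI50. Definition used: TGI = concentration required for complete inhibition of growth.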

Key:
Experiment in all cases: NCI-60 cell line screen, 48 h
[1] = system: A498 renal
[2] = system: NCI/ADR-RES ovarian
[3] = system: HOP-92 NSCLC
[4] = system: A549 NSCLC
[5] = system: TK-10 renal
[6] = system: HL-60(TB) leukemia
[7] = system: NCI-H23 lung
[8] = system: SW-620 colon
[9] = system: SK-MEL-2 melanoma
[10] = system: CAKI-1 renal
[11] = system: EKVX NSCLC
[12] = system: NCI-H522 lung
[13] = system: HOP-62 NSCLC
[14] = system: OVCAR-5 ovarian
[15] = system: HS 578T breast
[16] = system: RPMI-8226 leukemia
[17] = system: HT29 colon
[18] = system: SK-OV-3 ovarian
[19] = system: SNB-75 CNS
[20] = system: UO-31 renal
[21] = system: SN12C renal
[22] = system: KM12 colon
[23] = system: U251 CNS
[24] = system: SK-MEL-5 melanoma
[25] = system: LOX IMVI melanoma
[26] = system: MOLT-4 leukemia
[27] = system: OVCAR-4 ovarian
[28] = system: HCT-15 colon
[29] = system: PC-3 prostate
[30] = system: SF-268 CNS
[31] = system: MDA-MB-435
[32] = system: MDA-MB-231 breast
[33] = system: SF-295 CNS
[34] = system: UACC-257 melanoma
[35] = system: OVCAR-3 ovarian
[36] = system: HCT-116 colon
[37] = system: T-47D breast
[38] = system: IGROV1 ovarian
[39] = system: OVCAR-8 ovarian
[40] = system: HCC-2998 colon
[41] = system: MCF7 breast
[42] = system: ACHN renal
[43] = system: COLO 205 colon
[44] = system: NCI-H226 lung
[45] = system: RXF 393 renal
[46] = system: SR leukemia
[47] = system: DU-145 prostate
[48] = system: SK-MEL-28 melanoma
[49] = system: CCRF-CEM leukemia
[50] = system: UACC-62 melanoma
[51] = system: SNB-19 CNS
[52] = system: 786-0 renal
[53] = system: MALME-3M melanoma
[54] = system: NCI-H460 lung
[55] = system: M14 melanoma
[56] = system: SF-539 CNS
[57] = system: K-562 leukemia
[58] = system: BT-549 breast

SMILES: COc1ccc(OC)c(Nc2nc3ccccc3c3c2-c2ccc(OC)cc2C3=O)c1
- GI50 [1]: > 100 µM
- TGI [1]: > 100 µM
- GI50 [2]: > 100 µM
- TGI [2]: > 100 µM
- GI50 [3]: > 100 µM
- TGI [3]: > 100 µM
- GI50 [4]: > 100 µM
- TGI [4]: > 100 µM
- GI50 [5]: > 100 µM
- TGI [5]: > 100 µM
- GI50 [6]: > 100 µM
- TGI [6]: > 100 µM
- GI50 [7]: > 100 µM
- TGI [7]: > 100 µM
- GI50 [8]: > 100 µM
- TGI [8]: > 100 µM
- GI50 [9]: > 100 µM
- TGI [9]: > 100 µM
- GI50 [10]: > 100 µM
- TGI [10]: > 100 µM
- GI50 [11]: > 100 µM
- TGI [11]: > 100 µM
- GI50 [12]: > 100 µM
- TGI [12]: > 100 µM
- GI50 [13]: > 100 µM
- TGI [13]: > 100 µM
- GI50 [14]: > 100 µM
- TGI [14]: > 100 µM
- GI50 [15]: > 100 µM
- TGI [15]: > 100 µM
- GI50 [16]: > 100 µM
- TGI [16]: > 100 µM
- GI50 [17]: > 100 µM
- TGI [17]: > 100 µM
- GI50 [18]: > 100 µM
- TGI [18]: > 100 µM
- GI50 [19]: > 100 µM
- TGI [19]: > 100 µM
- GI50 [20]: > 100 µM
- TGI [20]: > 100 µM
- GI50 [21]: > 100 µM
- TGI [21]: > 100 µM
- GI50 [22]: > 100 µM
- TGI [22]: > 100 µM
- GI50 [23]: > 100 µM
- TGI [23]: > 100 µM
- GI50 [24]: > 100 µM
- TGI [24]: > 100 µM
- GI50 [25]: > 100 µM
- TGI [25]: > 100 µM
- GI50 [26]: > 100 µM
- TGI [26]: > 100 µM
- GI50 [27]: > 100 µM
- TGI [27]: > 100 µM
- GI50 [28]: > 100 µM
- TGI [28]: > 100 µM
- GI50 [29]: > 100 µM
- TGI [29]: > 100 µM
- GI50 [30]: > 100 µM
- TGI [30]: > 100 µM
- GI50 [31]: > 100 µM
- TGI [31]: > 100 µM
- GI50 [32]: > 100 µM
- TGI [32]: > 100 µM
- GI50 [33]: > 100 µM
- TGI [33]: > 100 µM
- GI50 [34]: > 100 µM
- TGI [34]: > 100 µM
- GI50 [35]: > 100 µM
- TGI [35]: > 100 µM
- GI50 [36]: > 100 µM
- TGI [36]: > 100 µM
- GI50 [37]: > 100 µM
- TGI [37]: > 100 µM
- GI50 [38]: > 100 µM
- TGI [38]: > 100 µM
- GI50 [39]: > 100 µM
- TGI [39]: > 100 µM
- GI50 [40]: > 100 µM
- TGI [40]: > 100 µM
- GI50 [41]: > 100 µM
- TGI [41]: > 100 µM
- GI50 [42]: > 100 µM
- TGI [42]: > 100 µM
- GI50 [43]: > 100 µM
- TGI [43]: > 100 µM
- GI50 [44]: > 100 µM
- TGI [44]: > 100 µM
- GI50 [45]: > 100 µM
- TGI [45]: > 100 µM
- GI50 [46]: 40.7 µM
- TGI [46]: > 100 µM
- GI50 [47]: > 100 µM
- TGI [47]: > 100 µM
- GI50 [48]: > 100 µM
- TGI [48]: > 100 µM
- GI50 [49]: > 100 µM
- TGI [49]: > 100 µM
- GI50 [50]: > 100 µM
- TGI [50]: > 100 µM
- GI50 [51]: > 100 µM
- TGI [51]: > 100 µM
- GI50 [52]: > 100 µM
- TGI [52]: > 100 µM
- GI50 [53]: > 100 µM
- TGI [53]: > 100 µM
- GI50 [54]: > 100 µM
- TGI [54]: > 100 µM
- GI50 [55]: > 100 µM
- TGI [55]: > 100 µM
- GI50 [56]: > 100 µM
- TGI [56]: > 100 µM
- GI50 [57]: > 100 µM
- TGI [57]: > 100 µM
- GI50 [58]: > 100 µM
- TGI [58]: > 100 µM
